Data on four compounds can be found in patent US4389486A, “Biologically pure culture” (Kowa Company, Ltd., priority 1977, dated 1983).

The term LD50 denotes the dose expected to kill half of the subjects tested. Low readings indicate greater toxicity, high ones lower toxicity.

Molecules are shown by their SMILES.

One series in a line: Solubility. In kind it is physicochemical.
The next series can be described thus: Acute toxicity in mice. Particulars: mouse, in vivo. The source says:
The acute toxicities of the KA-6606 I, II, III and IV of this invention determined by using mice are as follows.

The next series is described as follows: Stability to pH. It is filed as physicochemical.
Setting [1] is: in chloroform, ethyl acetate, diethyl ether, hexane and petroleum ether.

For the compound `COC1CC(N)C(OC2OC(C(C)N)CCC2N)C(O)C1N(C)C(=O)CNC(N)=O` (centres unmarked) [KA-6606 III], the Solubility result in the series “Solubility” (setting [1]) was “insoluble”; in “Solubility” (in ethanol), “slightly soluble”; in “Solubility” (in methanol), “easily soluble”; in “Solubility” (in water), “Very readily soluble”. In addition, the LD50 in the series “Acute toxicity in mice” (iv.) is greater than 200 mg/kg; in “Acute toxicity in mice” (sc.), greater than 800 mg/kg. The Stability entry in the series “Stability to pH” (in basicity and strong acidity) was “gradually decomposed and inactivated”; in “Stability to pH” (pH of 3 to 8), “Stable”.
As for `CNC1C(OC)CC(N)C(OC2OC(C(C)N)CCC2N)C1O` (centres unmarked) [KA-6606 II], the Solubility result is listed as “insoluble” in the series “Solubility” (setting [1]), “slightly soluble” in the series “Solubility” (in ethanol), “easily soluble” in “Solubility” (in methanol) and “Very readily soluble” in “Solubility” (in water). The LD50 is greater than 400 mg/kg in the series “Acute toxicity in mice” (iv.) and greater than 1000 mg/kg in the series “Acute toxicity in mice” (sc.). Also, the Stability entry in “Stability to pH” (in strong acidity) was “gradually decomposed and inactivated”; in “Stability to pH” (pH of at least 2) it was “Stable”.
Regarding `COC1CC(N)C(OC2OC(C(C)N)CCC2N)C(O)C1N(C)C(=O)CN` (centres unmarked) [KA-6606 I], the Solubility entry in “Solubility” (setting [1]) is “Insoluble”; in “Solubility” (in ethanol), “slightly soluble”; in the series “Solubility” (in methanol), “Easily soluble”; in the series “Solubility” (in water), “Very readily soluble”. In addition, the LD50 in the series “Acute toxicity in mice” (iv.) was in the range of 50 to 100 mg/kg; in “Acute toxicity in mice” (sc.), 200 to 400 mg/kg. Further, the Stability entry in the series “Stability to pH” (in basicity and strong acidity) is “gradually decomposed and inactivated”; in “Stability to pH” (pH of 3 to 8), “Stable”.
On to `COC1CC(N)C(OC2OC(C(C)N)CCC2N)C(O)C1N(C)C(=O)CNC=O` (centres unmarked) [KA-6606 IV], for which the Solubility entry in the series “Solubility” (setting [1]) is given as “insoluble”; in “Solubility” (in ethanol) it was “slightly soluble”; in “Solubility” (in methanol), “easily soluble”; in “Solubility” (in water) it was “Very readily soluble”. Moreover, the LD50 in “Acute toxicity in mice” (iv.) is greater than 200 mg/kg; in “Acute toxicity in mice” (sc.) it was greater than 800 mg/kg. Besides, the Stability result in “Stability to pH” (in basicity and strong acidity) was “gradually decomposed and inactivated”; in the series “Stability to pH” (pH of 3 to 8) it was “Stable”.
